Data taken from patent publication US20220204575A1, “MODULATING SURVIVAL OF THERAPEUTIC CELLS AND METHODS, CELLS AND NUCLEIC ACIDS RELATED THERETO” (The Regents of the University of California, priority 2019, published 2022).

Legend:
Format in all cases: cell-based
[1] = tested on: engineered T cells; assay: Inducible tBID circuit with varied levels of constitutive BCL-2 expression, T cell survival; details: constant antigen-induced tBID expression, varied constitutive BCL-2
From the text: The ability of anti-apoptotic BCL-2 to buffer a pro-apoptotic protein was further tested in an inducible tBID circuit (described in more detail below) with varied levels of constitutive BCL-2 expression (schematically depicted in FIG. 5). In this experiment, constant levels of tBID expression were induced by the presence of antigen expressing target cells, BCL-2 expression levels were varied, and the amount of T cell survival at different levels of BCL-2 expression was quantitated (FIG. 6).

[2] = tested on: primary human T cells; assay: Constitutive overexpression of pro-apoptotic BCL-2 family proteins in T cells, FACS at culture day 12
Experimental: The abilities of several pro-apoptotic proteins (e.g., BIM, truncated Bid (tBID), and BAD) to induce T cell apoptosis when synthetically overexpressed from a constitutive promoter were tested. The tested T cells were also engineered to constitutively overexpress anti-apoptotic BCL-2.
Without being bound by theory, these effects were likely due to leaky expression of BIM, the high effectiveness of BIM in inducing apoptosis, or a combination thereof.

[3] = tested on: T cells; assay: Basal T cell death from inducible response element constructs in the absence of synNotch antigen
From the text: Differences in the potency of various BCL-2 family members in inducible systems for therapeutic cell population control were also investigated and differences in potency were observed. For example, molecular circuits were designed and tested that included a response element construct including a UAS, inducible by the released transcription factor (TF) domain of a synNotch receptor, driving expression of various different BCL-2 family members (e.g., BIM, tBID, etc.) and a constitutive reporter (mCherry) (see schematic depiction provided in FIG. 19). Upon binding its target antigen, the synNotch receptor releases the TF domain which activates the UAS thereby driving expression of the respective BCL-2 family protein and the mCherry reporter is used to observe the size of the cell population thereafter.

[4] = tested on: human primary CD4 T cells; assay: Anti-Her2 synNotch driving pro-apoptotic BCL-2 family protein X, T cell survival with antigen-expressing target cells; details: in the presence of antigen-expressing target cells
Experimental: For example, a circuit was designed, as schematically depicted in FIG. 27, with an anti-Her2 synNotch driving expression of a pro-apoptotic BCL-2 family protein “X”, where X stands for the various pro-apoptotic BCL-2 family members were tested in the depicted circuit. As shown, upon the anti-Her2 scFv portion of the synNotch receptor binding Her2 expressed by a target cell, the transcription factor (TF) portion of the synNotch, containing Gal4-VP64, is released and inducing expression of the pro-apoptotic BCL-2 family protein “X”. The level of induced apoptosis in the presence of cells expressing the target antigen, as compared to control cells not expressing the target antigen, was then assessed.
Results of testing BID, tBID, PUMA, BMF, HRK and BIK as pro-apoptotic BCL-2 family protein “X” in this system are shown in FIG. 28, along with a negative control employing BFP in place of the pro-apoptotic BCL-2 family protein “X”.
Thus, the therapeutic cells encoding the BID circuit were able to survive BID induction.

In the case of “BCL-2: anti-apoptotic BCL-2 protein, human UniProt P10415, SEQ ID NO: 105”, the “T cell survival at different levels of BCL-2 expression” value [1] is reported as “titratably buffers against apoptosis”, the “T cell survival at different levels of BCL-2 expression” value ([1]; listed as BCL2) is reported as “less tBID-induced apoptosis” and the “buffering against apoptotic effects of tBID and BIM” value ([2]; constitutive co-expression of BCL-2) is reported as “at least partially buffer against the apoptotic effects”.

“BIM: pro-apoptotic BCL-2 family protein, human BIM UniProt O43521, SEQ ID NO: 99” was tested, and the “basal T cell death from leaky expression” value ([3]; absence of synNotch target antigen, mCherry reporter) was “sufficient to cause widespread T cell death”, the “cell death from uninduced inducible construct” value ([3]; uninduced, in the absence of co-expression with anti-apoptotic BCL-2) was “leads to significant levels of cell death” and the “ability to induce T cell apoptosis / drive T cell death” value ([2]; constitutive expression, with constitutive overexpression of BCL-2, culture day 12) was “drove significant apoptosis”.

In the case of “BMF: pro-apoptotic BMF protein, human UniProt Q96LC9”, the “induced apoptosis of T cells” value [4] is reported as “induce apoptosis of human primary CD4 T cells”.

In the case of “HRK: pro-apoptotic HRK protein, human UniProt O00198, SEQ ID NO: 103”, the “induced apoptosis of T cells” value [4] is reported as “induce apoptosis of human primary CD4 T cells”.
